Experimental data taken from ChEMBL document CHEMBL1128875, “Synthesis and biological activity of Para-substituted 3-phenyl docetaxel analogs” (Bioorg Med Chem Lett, 1995).
≈ marks a conversion by molar mass, not a printed value.

What was measured:
[1] = species on record: Mus musculus; test: Ratio of median tumor weight of the treated mice /control mice; type: functional
[2] = molecular target: Tubulin alpha chain (Sus scrofa) (UniProt P02550); test: Tested for 50% inhibition of the rate of microtubule disassembly to that paclitaxel; type: functional
[3] = test system: Mus musculus; test: In vivo antitumor activity against B16 melanoma cells in mice; type: functional
[4] = test system: P388; test: In vitro cytotoxicity against murine P388 lymphocytic leukemia cells; type: functional, cell-based; conditions: Mus musculus
[5] = species on record: Mus musculus; test: Ratio of median tumor weight of the treated mice /control mice; non evaluable: immediate death after injection (insoluble compound); type: ADME, organism-based; conditions: in vivo
[6] = species on record: Mus musculus; test: Ratio of median tumor weight of the treated mice /control mice; non evaluable: delayed toxicity; type: organism-based; conditions: in vivo

Tubulin alpha chain (Sus scrofa), sequence (P02550 whole entry, looked up): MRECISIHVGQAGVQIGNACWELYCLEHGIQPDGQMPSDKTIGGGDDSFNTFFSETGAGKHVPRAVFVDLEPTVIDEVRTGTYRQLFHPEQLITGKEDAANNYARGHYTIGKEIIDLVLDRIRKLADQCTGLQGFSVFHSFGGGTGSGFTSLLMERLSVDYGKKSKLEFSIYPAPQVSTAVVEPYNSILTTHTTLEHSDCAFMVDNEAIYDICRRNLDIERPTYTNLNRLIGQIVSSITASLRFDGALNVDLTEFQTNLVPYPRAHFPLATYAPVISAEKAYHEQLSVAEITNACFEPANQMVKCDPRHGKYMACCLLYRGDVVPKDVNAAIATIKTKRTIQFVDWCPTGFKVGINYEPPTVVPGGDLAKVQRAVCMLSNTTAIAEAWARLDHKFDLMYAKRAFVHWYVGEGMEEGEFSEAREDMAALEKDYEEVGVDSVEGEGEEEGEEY

| Compound | T/C [1] [%] | IC50 ratio [2] | Max tolerated dose [3] [mg/kg/day] | IC50 [4] [µg/mL] | T/C [5] | T/C [6] |
| --- | --- | --- | --- | --- | --- | --- |
| C#Cc1ccc([C@H](NC(=O)OC(C)(C)C)[C@@H](O)C(=O)O[C@H]2C[C@@]3(O)[C@@H](OC(=O)c4ccccc4)[C@@H]4[C@]5(OC(C)=O)CO[C@@H]5C[C@H](O)[C@@]4(C)C(=O)[C@H](O)C(=C2C)C3(C)C)cc1 | 15 | 0.6 | 21.7 | 0.085 (≈ 0.102 µM) |  |  |
| CC(=O)O[C@@]12CO[C@@H]1C[C@H](O)[C@@]1(C)C(=O)[C@H](O)C3=C(C)[C@@H](OC(=O)[C@H](O)[C@@H](NC(=O)OC(C)(C)C)c4ccccc4)C[C@@](O)([C@@H](OC(=O)c4ccccc4)[C@H]21)C3(C)C.O.O.O [DOCETAXEL] | 0 | 0.64 | 13.4 | 0.04 |  |  |
| CC(=O)O[C@@]12CO[C@@H]1C[C@H](O)[C@@]1(C)C(=O)[C@H](O)C3=C(C)[C@@H](OC(=O)[C@H](O)[C@@H](NC(=O)OC(C)(C)C)c4ccc(C(=O)c5ccccc5)cc4)C[C@@](O)([C@@H](OC(=O)c4ccccc4)[C@H]21)C3(C)C | 95 | 20 | 20 | > 1 |  |  |
| CC(=O)O[C@@]12CO[C@@H]1C[C@H](O)[C@@]1(C)C(=O)[C@H](O)C3=C(C)[C@@H](OC(=O)[C@H](O)[C@@H](NC(=O)OC(C)(C)C)c4ccc(C(C)=O)cc4)C[C@@](O)([C@@H](OC(=O)c4ccccc4)[C@H]21)C3(C)C | 10 | 0.95 | 35.3 | 0.19 (≈ 0.224 µM) |  |  |
| C=Cc1ccc([C@H](NC(=O)OC(C)(C)C)[C@@H](O)C(=O)O[C@H]2C[C@@]3(O)[C@@H](OC(=O)c4ccccc4)[C@@H]4[C@]5(OC(C)=O)CO[C@@H]5C[C@H](O)[C@@]4(C)C(=O)[C@H](O)C(=C2C)C3(C)C)cc1 | 19 | 0.7 | 38.3 | 0.06 (≈ 0.0719 µM) |  |  |
| CC(=O)O[C@@]12CO[C@@H]1C[C@H](O)[C@@]1(C)C(=O)[C@H](O)C3=C(C)[C@@H](OC(=O)[C@H](O)[C@@H](NC(=O)OC(C)(C)C)c4ccc(C=O)cc4)C[C@@](O)([C@@H](OC(=O)c4ccccc4)[C@H]21)C3(C)C |  | 0.75 | <13.4 | 0.13 (≈ 0.156 µM) | non evaluable: immediate death after injection (insoluble compound) |  |
| C=C(C)c1ccc([C@H](NC(=O)OC(C)(C)C)[C@@H](O)C(=O)O[C@H]2C[C@@]3(O)[C@@H](OC(=O)c4ccccc4)[C@@H]4[C@]5(OC(C)=O)CO[C@@H]5C[C@H](O)[C@@]4(C)C(=O)[C@H](O)C(=C2C)C3(C)C)cc1 | 105 | 1.8 | 20 | 0.35 (≈ 0.413 µM) |  |  |
| CC(=O)O[C@@]12CO[C@@H]1C[C@H](O)[C@@]1(C)C(=O)[C@H](O)C3=C(C)[C@@H](OC(=O)[C@H](O)[C@@H](NC(=O)OC(C)(C)C)c4ccc(-c5ccccc5)cc4)C[C@@](O)([C@@H](OC(=O)c4ccccc4)[C@H]21)C3(C)C | 40 | 2 | 35 | 0.65 (≈ 0.735 µM) |  |  |
| CC(=O)O[C@@]12CO[C@@H]1C[C@H](O)[C@@]1(C)C(=O)[C@H](O)C3=C(C)[C@@H](OC(=O)[C@H](O)[C@@H](NC(=O)OC(C)(C)C)c4ccc(C)cc4)C[C@@](O)([C@@H](OC(=O)c4ccccc4)[C@H]21)C3(C)C | 8 | 1.3 | 15.5 | 0.04 (≈ 0.0487 µM) |  |  |
| CC(=O)O[C@@]12CO[C@@H]1C[C@H](O)[C@@]1(C)C(=O)[C@H](O)C3=C(C)[C@@H](OC(=O)[C@H](O)[C@@H](NC(=O)OC(C)(C)C)c4ccc(CO)cc4)C[C@@](O)([C@@H](OC(=O)c4ccccc4)[C@H]21)C3(C)C |  | 0.4 | <4.8 | 0.06 (≈ 0.0716 µM) |  | non evaluable: delayed toxicity |
